Source: the kinase profiling compilation of Christmann-Franck et al. (2016)
“And” between values parts separate entries of the source, which are not always exact repeats. Identical values can stand only once.

How the values were obtained:
Test in all cases: KINOMEscan competition binding
Details in all cases: compound 10.0 µM
AKT2 (human) = AKT2 (human) (UniProt P31751)
AURKB (human) = AURKB (human) (UniProt Q96GD4)
BMPR2 (human) = BMPR2 (human) (UniProt Q13873)
CAMK2G (human) = CAMK2G (human) (UniProt Q13555)
CDK19 (human) = CDK19 (human) (UniProt Q9BWU1)
CSK (human) = CSK (human) (UniProt P41240)
CSNK2A2 (human) = CSNK2A2 (human) (UniProt P19784)
DCLK1 (human) = DCLK1 (human) (UniProt O15075)
FLT3 (human) = FLT3 (human) (UniProt P36888)
FRK (human) = FRK (human) (UniProt P42685)
GSK3B (human) = GSK3B (human) (UniProt P49841)
IKBKB (human) = IKBKB (human) (UniProt O14920)
INSRR (human) = INSRR (human) (UniProt P14616)
KDR (human) = KDR (human) (UniProt P35968)
LTK (human) = LTK (human) (UniProt P29376)
MAP2K3 (human) = MAP2K3 (human) (UniProt P46734)
MAPK1 (human) = MAPK1 (human) (UniProt P28482)
MAPK4 (human) = MAPK4 (human) (UniProt P31152)
MAPKAPK2 (human) = MAPKAPK2 (human) (UniProt P49137)
MAPKAPK5 (human) = MAPKAPK5 (human) (UniProt Q8IW41)
MARK3 (human) = MARK3 (human) (UniProt P27448)
MKNK2 (human) = MKNK2 (human) (UniProt Q9HBH9)
MUSK (human) = MUSK (human) (UniProt O15146)
MYLK2 (human) = MYLK2 (human) (UniProt Q9H1R3)
NEK2 (human) = NEK2 (human) (UniProt P51955)
NTRK1 (human) = NTRK1 (human) (UniProt P04629)
PAK3 (human) = PAK3 (human) (UniProt O75914)
PAK6 (human) = PAK6 (human) (UniProt Q9NQU5)
PIK3CB (human) = PIK3CB (human) (UniProt P42338)
PIM1 (human) = PIM1 (human) (UniProt P11309)
PIM2 (human) = PIM2 (human) (UniProt Q9P1W9)
PRKCD (human) = PRKCD (human) (UniProt Q05655)
PRKD1 (human) = PRKD1 (human) (UniProt Q15139)
RIPK2 (human) = RIPK2 (human) (UniProt O43353)
ROCK2 (human) = ROCK2 (human) (UniProt O75116)
ROS1 (human) = ROS1 (human) (UniProt P08922)
SIK1 (human) = SIK1 (human) (UniProt P57059)
SRPK2 (human) = SRPK2 (human) (UniProt P78362)
TAOK3 (human) = TAOK3 (human) (UniProt Q9H2K8)
TTK (human) = TTK (human) (UniProt P33981)
ULK2 (human) = ULK2 (human) (UniProt Q8IYT8)

CAMK2G (human), sequence (Q13555 whole entry, looked up): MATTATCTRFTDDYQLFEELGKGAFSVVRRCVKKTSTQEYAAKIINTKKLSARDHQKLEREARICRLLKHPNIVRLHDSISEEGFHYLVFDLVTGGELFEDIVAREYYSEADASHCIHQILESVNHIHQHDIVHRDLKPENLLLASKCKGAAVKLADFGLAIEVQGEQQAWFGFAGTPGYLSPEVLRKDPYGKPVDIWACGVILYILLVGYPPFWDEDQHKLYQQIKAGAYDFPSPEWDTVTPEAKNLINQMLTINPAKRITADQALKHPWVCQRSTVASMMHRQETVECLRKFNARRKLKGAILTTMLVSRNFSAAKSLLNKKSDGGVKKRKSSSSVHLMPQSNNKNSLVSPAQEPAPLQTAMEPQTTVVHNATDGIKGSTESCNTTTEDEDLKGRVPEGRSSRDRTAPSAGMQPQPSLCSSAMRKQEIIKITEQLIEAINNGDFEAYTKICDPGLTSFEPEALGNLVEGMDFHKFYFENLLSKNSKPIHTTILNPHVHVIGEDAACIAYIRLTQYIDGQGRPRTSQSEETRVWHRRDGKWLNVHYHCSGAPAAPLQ
PRKCD (human), sequence (Q05655 whole entry, looked up): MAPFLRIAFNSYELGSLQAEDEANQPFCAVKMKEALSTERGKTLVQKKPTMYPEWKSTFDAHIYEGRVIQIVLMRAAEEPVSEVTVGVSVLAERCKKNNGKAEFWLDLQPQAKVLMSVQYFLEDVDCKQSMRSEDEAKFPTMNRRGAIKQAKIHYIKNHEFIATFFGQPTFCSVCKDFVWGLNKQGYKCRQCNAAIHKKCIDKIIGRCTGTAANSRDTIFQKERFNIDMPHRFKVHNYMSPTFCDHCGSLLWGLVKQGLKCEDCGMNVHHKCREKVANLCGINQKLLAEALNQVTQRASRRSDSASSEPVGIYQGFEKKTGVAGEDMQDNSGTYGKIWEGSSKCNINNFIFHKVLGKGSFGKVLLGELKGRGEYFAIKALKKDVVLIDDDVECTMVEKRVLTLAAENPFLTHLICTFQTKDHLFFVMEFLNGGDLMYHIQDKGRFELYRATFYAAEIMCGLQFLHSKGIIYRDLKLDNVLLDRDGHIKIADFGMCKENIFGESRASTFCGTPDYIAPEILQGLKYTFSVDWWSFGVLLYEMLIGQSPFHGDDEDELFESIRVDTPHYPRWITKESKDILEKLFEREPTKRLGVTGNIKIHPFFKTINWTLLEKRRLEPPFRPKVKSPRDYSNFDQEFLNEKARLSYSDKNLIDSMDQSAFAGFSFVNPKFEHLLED
RIPK2 (human), sequence (O43353 whole entry, looked up): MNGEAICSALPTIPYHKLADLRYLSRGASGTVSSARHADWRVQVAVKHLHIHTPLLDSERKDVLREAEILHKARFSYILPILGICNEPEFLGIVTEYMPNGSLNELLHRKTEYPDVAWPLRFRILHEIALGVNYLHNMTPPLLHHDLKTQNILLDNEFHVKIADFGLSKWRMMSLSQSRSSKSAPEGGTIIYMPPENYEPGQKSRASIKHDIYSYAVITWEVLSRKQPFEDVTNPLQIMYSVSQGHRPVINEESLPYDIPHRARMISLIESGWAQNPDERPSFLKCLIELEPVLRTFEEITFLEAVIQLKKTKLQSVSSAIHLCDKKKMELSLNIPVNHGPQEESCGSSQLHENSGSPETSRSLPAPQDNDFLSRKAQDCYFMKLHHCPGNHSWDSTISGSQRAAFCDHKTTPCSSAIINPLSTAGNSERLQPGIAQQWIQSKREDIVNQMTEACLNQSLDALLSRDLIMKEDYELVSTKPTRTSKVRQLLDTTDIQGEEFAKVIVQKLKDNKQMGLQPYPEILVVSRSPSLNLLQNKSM
MUSK (human), sequence (O15146 whole entry, looked up): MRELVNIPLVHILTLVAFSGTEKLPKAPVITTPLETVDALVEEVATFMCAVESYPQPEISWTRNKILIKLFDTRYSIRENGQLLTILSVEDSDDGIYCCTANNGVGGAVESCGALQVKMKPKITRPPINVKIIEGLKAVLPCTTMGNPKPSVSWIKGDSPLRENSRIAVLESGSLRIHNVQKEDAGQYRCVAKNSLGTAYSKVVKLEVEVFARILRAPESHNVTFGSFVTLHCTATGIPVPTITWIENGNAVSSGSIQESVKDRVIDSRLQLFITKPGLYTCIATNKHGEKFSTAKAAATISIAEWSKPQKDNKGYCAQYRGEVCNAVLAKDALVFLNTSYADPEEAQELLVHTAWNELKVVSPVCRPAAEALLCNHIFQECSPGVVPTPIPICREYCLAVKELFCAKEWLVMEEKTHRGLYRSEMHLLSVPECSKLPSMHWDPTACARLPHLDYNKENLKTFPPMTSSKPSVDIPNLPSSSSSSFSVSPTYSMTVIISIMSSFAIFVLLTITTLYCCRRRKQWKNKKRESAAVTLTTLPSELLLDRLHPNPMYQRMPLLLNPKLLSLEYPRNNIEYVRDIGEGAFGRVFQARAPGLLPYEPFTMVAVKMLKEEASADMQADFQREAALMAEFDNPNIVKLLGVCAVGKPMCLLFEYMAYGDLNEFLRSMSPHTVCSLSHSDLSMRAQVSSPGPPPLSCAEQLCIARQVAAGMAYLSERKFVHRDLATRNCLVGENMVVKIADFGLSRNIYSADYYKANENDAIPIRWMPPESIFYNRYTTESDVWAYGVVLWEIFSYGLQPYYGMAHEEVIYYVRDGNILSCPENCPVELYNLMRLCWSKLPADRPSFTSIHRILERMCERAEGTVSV
MAPKAPK5 (human), sequence (Q8IW41 whole entry, looked up): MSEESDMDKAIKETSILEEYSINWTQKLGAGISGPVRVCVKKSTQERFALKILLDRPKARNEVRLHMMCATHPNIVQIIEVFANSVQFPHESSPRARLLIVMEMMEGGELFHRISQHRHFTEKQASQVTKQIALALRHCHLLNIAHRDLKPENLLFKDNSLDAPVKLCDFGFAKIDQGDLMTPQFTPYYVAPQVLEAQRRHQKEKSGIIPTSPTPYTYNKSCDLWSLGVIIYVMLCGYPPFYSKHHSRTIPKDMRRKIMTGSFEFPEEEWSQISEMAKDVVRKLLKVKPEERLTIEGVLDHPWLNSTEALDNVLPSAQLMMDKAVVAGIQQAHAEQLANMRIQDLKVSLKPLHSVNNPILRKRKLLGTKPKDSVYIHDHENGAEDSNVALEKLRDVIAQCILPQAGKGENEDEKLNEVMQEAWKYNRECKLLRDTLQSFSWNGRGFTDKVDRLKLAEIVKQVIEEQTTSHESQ
SRPK2 (human), sequence (P78362 whole entry, looked up): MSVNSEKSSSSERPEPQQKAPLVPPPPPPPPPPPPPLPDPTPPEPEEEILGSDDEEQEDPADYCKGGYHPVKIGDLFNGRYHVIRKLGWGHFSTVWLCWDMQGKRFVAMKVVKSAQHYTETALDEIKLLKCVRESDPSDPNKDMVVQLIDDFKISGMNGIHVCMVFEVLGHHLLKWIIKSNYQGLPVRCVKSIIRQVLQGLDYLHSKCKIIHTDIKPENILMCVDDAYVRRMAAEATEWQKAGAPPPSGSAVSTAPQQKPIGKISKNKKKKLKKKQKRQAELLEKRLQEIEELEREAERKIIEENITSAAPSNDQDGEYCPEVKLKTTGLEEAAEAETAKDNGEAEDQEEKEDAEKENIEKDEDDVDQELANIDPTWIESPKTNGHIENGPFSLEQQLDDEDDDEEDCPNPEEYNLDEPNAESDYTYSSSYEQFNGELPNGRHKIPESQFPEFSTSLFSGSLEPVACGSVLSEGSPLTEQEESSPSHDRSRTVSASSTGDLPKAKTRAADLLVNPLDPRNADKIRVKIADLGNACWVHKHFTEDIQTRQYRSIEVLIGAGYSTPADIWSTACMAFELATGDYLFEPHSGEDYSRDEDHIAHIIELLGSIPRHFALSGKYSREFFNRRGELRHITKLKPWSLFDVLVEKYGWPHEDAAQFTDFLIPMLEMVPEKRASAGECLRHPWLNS
PIM1 (human), sequence (P11309 whole entry, looked up): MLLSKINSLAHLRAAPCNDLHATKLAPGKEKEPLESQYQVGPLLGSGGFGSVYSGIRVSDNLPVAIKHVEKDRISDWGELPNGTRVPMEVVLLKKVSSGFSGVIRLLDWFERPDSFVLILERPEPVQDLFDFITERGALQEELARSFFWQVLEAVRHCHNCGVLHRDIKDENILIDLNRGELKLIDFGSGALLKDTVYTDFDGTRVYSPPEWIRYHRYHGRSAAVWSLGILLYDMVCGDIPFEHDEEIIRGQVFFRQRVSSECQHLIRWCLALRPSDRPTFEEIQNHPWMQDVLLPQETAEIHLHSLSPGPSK
AURKB (human), sequence (Q96GD4 whole entry, looked up): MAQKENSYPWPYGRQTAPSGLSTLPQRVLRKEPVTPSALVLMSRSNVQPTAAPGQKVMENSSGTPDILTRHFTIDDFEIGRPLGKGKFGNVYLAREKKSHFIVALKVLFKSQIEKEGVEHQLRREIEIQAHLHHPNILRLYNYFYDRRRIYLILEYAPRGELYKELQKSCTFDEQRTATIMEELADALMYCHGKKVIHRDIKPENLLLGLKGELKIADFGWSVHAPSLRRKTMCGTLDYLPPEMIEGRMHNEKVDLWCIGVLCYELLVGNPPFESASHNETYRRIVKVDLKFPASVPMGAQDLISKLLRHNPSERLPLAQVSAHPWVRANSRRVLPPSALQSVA
MAP2K3 (human), sequence (P46734 whole entry, looked up): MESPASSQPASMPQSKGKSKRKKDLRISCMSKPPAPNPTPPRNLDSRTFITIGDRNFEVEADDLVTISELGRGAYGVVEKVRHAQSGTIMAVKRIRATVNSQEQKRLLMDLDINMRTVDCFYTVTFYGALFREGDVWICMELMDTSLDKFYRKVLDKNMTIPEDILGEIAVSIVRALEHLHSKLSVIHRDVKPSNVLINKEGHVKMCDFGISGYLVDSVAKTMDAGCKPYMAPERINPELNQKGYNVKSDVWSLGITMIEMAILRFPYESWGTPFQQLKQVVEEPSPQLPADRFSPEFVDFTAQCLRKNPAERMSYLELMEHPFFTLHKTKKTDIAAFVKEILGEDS

O=C1Nc2ccc(I)cc2/C1=C/c1cc(Br)c(O)c(Br)c1
kinase still bound, per cent of control (AKT2 (human)): 90% | kinase still bound, per cent of control (AURKB (human)): 9.4% | kinase still bound, per cent of control (BMPR2 (human)): 100% | kinase still bound, per cent of control (CAMK2G (human)): 40% | kinase still bound, per cent of control (CDK19 (human)): 63% | kinase still bound, per cent of control (CSK (human)): 92% | kinase still bound, per cent of control (CSNK2A2 (human)): 3.2% | kinase still bound, per cent of control (DCLK1 (human)): 86% | kinase still bound, per cent of control (FLT3 (human)): 3.6% | kinase still bound, per cent of control (FRK (human)): 45% | kinase still bound, per cent of control (GSK3B (human)): 91% | kinase still bound, per cent of control (IKBKB (human)): 100% | kinase still bound, per cent of control (INSRR (human)): 81% | kinase still bound, per cent of control (KDR (human)): 100% | kinase still bound, per cent of control (LTK (human)): 47% | kinase still bound, per cent of control (MAP2K3 (human)): 46% | kinase still bound, per cent of control (MAPK1 (human)): 87% | kinase still bound, per cent of control (MAPK4 (human)): 100% | kinase still bound, per cent of control (MAPKAPK2 (human)): 100% | kinase still bound, per cent of control (MAPKAPK5 (human)): 100% | kinase still bound, per cent of control (MARK3 (human)): 68% | kinase still bound, per cent of control (MKNK2 (human)): 89% | kinase still bound, per cent of control (MUSK (human)): 74% | kinase still bound, per cent of control (MYLK2 (human)): 85% | kinase still bound, per cent of control (NEK2 (human)): 100% | kinase still bound, per cent of control (NTRK1 (human)): 82% | kinase still bound, per cent of control (PAK3 (human)): 100% | kinase still bound, per cent of control (PAK6 (human)): 73% | kinase still bound, per cent of control (PIK3CB (human)): 100% | kinase still bound, per cent of control (PIM1 (human)): 2.8% | kinase still bound, per cent of control (PIM2 (human)): 2.1% | kinase still bound, per cent of control (PRKCD (human)): 70% | kinase still bound, per cent of control (PRKD1 (human)): 100% | kinase still bound, per cent of control (RIPK2 (human)): 38% | kinase still bound, per cent of control (ROCK2 (human)): 55% | kinase still bound, per cent of control (ROS1 (human)): 99% | kinase still bound, per cent of control (SIK1 (human)): 83% | kinase still bound, per cent of control (SRPK2 (human)): 87% | kinase still bound, per cent of control (TAOK3 (human)): 87% | kinase still bound, per cent of control (TTK (human)): 17% | kinase still bound, per cent of control (ULK2 (human)): 90%

N#Cc1c(NC(=O)c2cccc3ccccc23)sc2c1CCCC2
kinase still bound, per cent of control (AKT2 (human)): 100% | kinase still bound, per cent of control (AURKB (human)): 94% | kinase still bound, per cent of control (BMPR2 (human)): 100% | kinase still bound, per cent of control (CAMK2G (human)): 94% | kinase still bound, per cent of control (CDK19 (human)): 88% | kinase still bound, per cent of control (CSK (human)): 95% | kinase still bound, per cent of control (CSNK2A2 (human)): 94% | kinase still bound, per cent of control (DCLK1 (human)): 100% | kinase still bound, per cent of control (FLT3 (human)): 94% and 87% | kinase still bound, per cent of control (FRK (human)): 58% | kinase still bound, per cent of control (GSK3B (human)): 66% | kinase still bound, per cent of control (IKBKB (human)): 72% | kinase still bound, per cent of control (INSRR (human)): 100% | kinase still bound, per cent of control (KDR (human)): 96% | kinase still bound, per cent of control (LTK (human)): 90% | kinase still bound, per cent of control (MAP2K3 (human)): 88% | kinase still bound, per cent of control (MAPK1 (human)): 89% | kinase still bound, per cent of control (MAPK4 (human)): 90% | kinase still bound, per cent of control (MAPKAPK2 (human)): 93% | kinase still bound, per cent of control (MAPKAPK5 (human)): 100% | kinase still bound, per cent of control (MARK3 (human)): 89% | kinase still bound, per cent of control (MKNK2 (human)): 92% | kinase still bound, per cent of control (MUSK (human)): 97% | kinase still bound, per cent of control (MYLK2 (human)): 100% | kinase still bound, per cent of control (NEK2 (human)): 65% | kinase still bound, per cent of control (NTRK1 (human)): 100% | kinase still bound, per cent of control (PAK3 (human)): 94% | kinase still bound, per cent of control (PAK6 (human)): 88% | kinase still bound, per cent of control (PIK3CB (human)): 100% | kinase still bound, per cent of control (PIM1 (human)): 100% | kinase still bound, per cent of control (PIM2 (human)): 69% | kinase still bound, per cent of control (PRKCD (human)): 100% | kinase still bound, per cent of control (PRKD1 (human)): 100% | kinase still bound, per cent of control (RIPK2 (human)): 58% | kinase still bound, per cent of control (ROCK2 (human)): 100% | kinase still bound, per cent of control (ROS1 (human)): 90% | kinase still bound, per cent of control (SIK1 (human)): 92% | kinase still bound, per cent of control (SRPK2 (human)): 100% | kinase still bound, per cent of control (TAOK3 (human)): 87% | kinase still bound, per cent of control (TTK (human)): 91% | kinase still bound, per cent of control (ULK2 (human)): 98%

CCN1CCN(Cc2ccc(Nc3ncc4c(n3)N(C)c3ccccc3C(=O)N4C)cc2C(F)(F)F)CC1
kinase still bound, per cent of control (AKT2 (human)): 100% | kinase still bound, per cent of control (AURKB (human)): 0.95% | kinase still bound, per cent of control (BMPR2 (human)): 91% | kinase still bound, per cent of control (CAMK2G (human)): 81% | kinase still bound, per cent of control (CDK19 (human)): 95% | kinase still bound, per cent of control (CSK (human)): 93% | kinase still bound, per cent of control (CSNK2A2 (human)): 100% | kinase still bound, per cent of control (DCLK1 (human)): 4.4% | kinase still bound, per cent of control (FLT3 (human)): 100% | kinase still bound, per cent of control (FRK (human)): 19% | kinase still bound, per cent of control (GSK3B (human)): 47% | kinase still bound, per cent of control (IKBKB (human)): 100% | kinase still bound, per cent of control (INSRR (human)): 100% | kinase still bound, per cent of control (KDR (human)): 100% | kinase still bound, per cent of control (LTK (human)): 100% | kinase still bound, per cent of control (MAP2K3 (human)): 74% | kinase still bound, per cent of control (MAPK1 (human)): 77% | kinase still bound, per cent of control (MAPK4 (human)): 100% | kinase still bound, per cent of control (MAPKAPK2 (human)): 100% | kinase still bound, per cent of control (MAPKAPK5 (human)): 100% | kinase still bound, per cent of control (MARK3 (human)): 11% | kinase still bound, per cent of control (MKNK2 (human)): 0.2% | kinase still bound, per cent of control (MUSK (human)): 100% | kinase still bound, per cent of control (MYLK2 (human)): 88% | kinase still bound, per cent of control (NEK2 (human)): 100% | kinase still bound, per cent of control (NTRK1 (human)): 34% | kinase still bound, per cent of control (PAK3 (human)): 9.4% | kinase still bound, per cent of control (PAK6 (human)): 79% | kinase still bound, per cent of control (PIK3CB (human)): 68% | kinase still bound, per cent of control (PIM1 (human)): 86% | kinase still bound, per cent of control (PIM2 (human)): 30% | kinase still bound, per cent of control (PRKCD (human)): 100% | kinase still bound, per cent of control (PRKD1 (human)): 17% | kinase still bound, per cent of control (RIPK2 (human)): 6.4% | kinase still bound, per cent of control (ROCK2 (human)): 100% | kinase still bound, per cent of control (ROS1 (human)): 11% | kinase still bound, per cent of control (SIK1 (human)): 27% | kinase still bound, per cent of control (SRPK2 (human)): 81% | kinase still bound, per cent of control (TAOK3 (human)): 0.1% | kinase still bound, per cent of control (TTK (human)): 77% | kinase still bound, per cent of control (ULK2 (human)): 0%
